Some test systems named below: DMS 114 small cell lung; SF-295 CNS; SK-MEL-5 melanoma; HL-60(TB) leukemia; DMS 273 small cell lung; SK-MEL-28 melanoma; SW-620 colon; MDA-MB-231 breast; PC-3 prostate; BT-549 breast.
Assay in all cases: NCI tumour cell line growth inhibition, 48 h

Molecules are shown by their SMILES.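 Exposure lasted 48 hours, with cells grown in 96-well plates and compounds tested at five concentrations. At the GI50, growth is halved. The concentration for full growth arrest is given as TGI.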

Turning to `CC1=C(O)c2cn(C)cc2C(=O)C1=O`, the TGI in the assay on DMS 114 small cell lung, in the assay with SF-295 CNS, in the assay with SK-MEL-5 melanoma, with HL-60(TB) leukemia, in the assay with DMS 273 small cell lung and in the assay with SK-MEL-28 melanoma was > 100 µM in each case. In addition, the TGI with SW-620 colon is > 100 µM.
As to `N.N.NCCCCCN.O=C([O-])CCl.O=C([O-])CCl.O=C([O-])CCl.O=C([O-])CCl.[Pt+4].[Pt+4]`, the GI50 with SF-295 CNS is 1.84 µM; in the assay on SK-MEL-5 melanoma, 4.68 µM; in the assay with HL-60(TB) leukemia, 1.43 µM; with DMS 273 small cell lung it was 1.29 µM; in the assay on SK-MEL-28 melanoma it was 23.2 µM; with SW-620 colon it was 4.58 µM. Further, the TGI in the assay on SF-295 CNS was 86 µM; in the assay with SK-MEL-5 melanoma, 18.3 µM; with HL-60(TB) leukemia, 11.2 µM; in the assay with DMS 273 small cell lung, > 100 µM; in the assay on SK-MEL-28 melanoma it was 73.8 µM; in the assay on SW-620 colon, > 100 µM.
As for `COc1ccccc1NC(=O)C1=C(C)NC(C)=C(C(=O)Nc2ccccc2OC)C1C1=CC=COC1`, the TGI in the assay on DMS 114 small cell lung was found to be 35.7 µM; in the assay on SF-295 CNS it was 40.7 µM; in the assay on SK-MEL-5 melanoma, 41.9 µM; with HL-60(TB) leukemia it was 10.7 µM; with DMS 273 small cell lung it was 29.1 µM; with SK-MEL-28 melanoma, 74 µM. The TGI with SW-620 colon was determined as 22.1 µM.
In the case of `Oc1ccc([Te]CCNCC[Te]c2ccc(O)cc2)cc1`, the TGI is 75.4 µM in the assay on SF-295 CNS; 26.4 µM in the assay with SK-MEL-5 melanoma; 38.5 µM with HL-60(TB) leukemia; > 100 µM with DMS 273 small cell lung; > 100 µM with SW-620 colon.
As for `COC(=O)CCC(NC(=S)N/N=C/c1ccccn1)C(=O)OC` (centres undefined), the TGI with DMS 114 small cell lung, in the assay on SF-295 CNS, in the assay with SK-MEL-5 melanoma, in the assay on HL-60(TB) leukemia, with SK-MEL-28 melanoma and with SW-620 colon was > 100 µM each time.
Turning to `CC1=Nc2ccccc2NC(c2ccoc2)C1` (centres undefined), the TGI in the assay on DMS 114 small cell lung, in the assay on SF-295 CNS, in the assay on SK-MEL-5 melanoma, with HL-60(TB) leukemia, in the assay on DMS 273 small cell lung and with SK-MEL-28 melanoma was > 100 µM each time. In addition, in the assay on SW-620 colon, the TGI is > 100 µM.
As for `COc1c(C)cc(O)cc1C=O`, the TGI in the assay on DMS 114 small cell lung, in the assay on SF-295 CNS, with SK-MEL-5 melanoma, in the assay on HL-60(TB) leukemia, in the assay on DMS 273 small cell lung and in the assay on SK-MEL-28 melanoma was > 100 µM each time. For the same compound, the TGI in the assay with SW-620 colon is > 100 µM.
As for `CC(=O)Nc1ccc(/C=c2\sc3nnc(CCC(=O)Nc4ccccc4Cl)n3c2=O)cc1`, the TGI was > 100 µM with DMS 114 small cell lung; 38.9 µM in the assay on SF-295 CNS; 68.2 µM with SK-MEL-5 melanoma; 41 µM in the assay on HL-60(TB) leukemia; 56.5 µM with SK-MEL-28 melanoma; 87.5 µM in the assay on SW-620 colon.
Regarding `COc1ccc(C(CCC(C)=O)C(=O)O)cc1OC` (centres undefined), the TGI in the assay on SF-295 CNS, with SK-MEL-5 melanoma, in the assay on DMS 273 small cell lung, in the assay on SK-MEL-28 melanoma and in the assay with SW-620 colon was > 100 µM throughout.
Consider `C=C=C(C(=O)OC)S(=O)c1ccccc1[N+](=O)[O-]` (centres undefined), for which the TGI in the assay on DMS 114 small cell lung, with SF-295 CNS, in the assay with SK-MEL-5 melanoma, in the assay on HL-60(TB) leukemia, in the assay with DMS 273 small cell lung and in the assay on SW-620 colon was > 100 µM throughout.
For the compound `COc1cccc2ccc(C(=O)c3ccccc3)nc12`, the TGI in the assay on SF-295 CNS, in the assay on SK-MEL-5 melanoma, in the assay with DMS 273 small cell lung, in the assay on SK-MEL-28 melanoma and with SW-620 colon was > 100 µM each time.
`COc1cccc(CCC2CCCN(c3cc(C)nc(N)n3)C2)c1` (centres undefined): the GI50 was 0.362 µM with SF-295 CNS; 0.333 µM in the assay on SK-MEL-5 melanoma; 0.251 µM with HL-60(TB) leukemia; 1.2 µM in the assay with MDA-MB-231 breast; 0.379 µM in the assay on PC-3 prostate; 0.69 µM in the assay with BT-549 breast. Also, the GI50 in the assay with SK-MEL-28 melanoma is 1.12 µM; in the assay on SW-620 colon it was 0.363 µM. Besides, the TGI is 10.6 µM in the assay on SF-295 CNS; 1.32 µM with SK-MEL-5 melanoma; 0.686 µM in the assay with HL-60(TB) leukemia; 11.5 µM in the assay with MDA-MB-231 breast; 14.1 µM in the assay with PC-3 prostate; 13.5 µM with BT-549 breast. Also, the TGI was 16 µM with SK-MEL-28 melanoma and 13.7 µM in the assay on SW-620 colon.
`O=C(O)/C=C/C(=O)N1Cc2cc3ccccc3nc2C1`: the TGI with SF-295 CNS, in the assay with SK-MEL-5 melanoma, in the assay with HL-60(TB) leukemia, in the assay with MDA-MB-231 breast, with PC-3 prostate and in the assay with BT-549 breast was > 100 µM in each case. Besides, the TGI in the assay on SK-MEL-28 melanoma and in the assay with SW-620 colon was > 100 µM throughout.
As for `NCCCNc1nc2ccccc2c2c(=O)c3cc(F)cc(F)c3sc12`, the GI50 was 1.99 µM in the assay on SF-295 CNS; 1.68 µM with SK-MEL-5 melanoma; 2.08 µM with HL-60(TB) leukemia; 1.49 µM in the assay on MDA-MB-231 breast; 1.67 µM in the assay on PC-3 prostate; 13 µM in the assay on BT-549 breast. In addition, the results for the GI50 with SK-MEL-28 melanoma and in the assay with SW-620 colon were 1.86 µM and 1.64 µM, respectively. The TGI in the assay with SF-295 CNS worked out at 4.06 µM; in the assay on SK-MEL-5 melanoma it was 3.09 µM; in the assay with HL-60(TB) leukemia it was 4.2 µM; in the assay with MDA-MB-231 breast, 3.02 µM; in the assay on PC-3 prostate, 3.24 µM; in the assay on BT-549 breast it was 26.8 µM. The TGI with SK-MEL-28 melanoma turned out to be 3.39 µM; with SW-620 colon it was 3.19 µM.
Regarding `Cc1cc(Cl)cc2c(N=Nc3ccc(S(N)(=O)=O)cc3)c(O)[nH]c12`, the GI50 in the assay with SF-295 CNS, with SK-MEL-5 melanoma, with HL-60(TB) leukemia, in the assay with MDA-MB-231 breast, in the assay with PC-3 prostate and in the assay on BT-549 breast was > 25 µM each time. Also, the GI50 with SK-MEL-28 melanoma and with SW-620 colon was > 25 µM throughout. Besides, the TGI with SF-295 CNS, in the assay on SK-MEL-5 melanoma, with HL-60(TB) leukemia, in the assay with MDA-MB-231 breast, in the assay with PC-3 prostate and in the assay on BT-549 breast was > 25 µM throughout. Also, the TGI in the assay with SK-MEL-28 melanoma and with SW-620 colon was > 25 µM throughout.
